For one test, the target named is MALT1 (Homo sapiens (Human), UniProt Q9UDY8). Nature of the test: MALT1 enzymatic activity inhibition (fluorescence, Ac-LRSR-AMC substrate). The test is classed as biochemical. The note with it: recombinant MALT1 1.5 ng/μl, Ac-LRSR-AMC 1 μM. A digest of the protocol:
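Recombinant human MALT1 (1.5 ng/μl final) preincubated 10 min at rt with compounds in 50 mM HEPES pH 7.2-7.4, 100 mM NaCl, 900 mM sodium citrate, 10 mM DTT; 1 μM Ac-LRSR-AMC then added. AMC fluorescence read at start and after 30 min 37 °C plus 30 min rt; difference gives signal, % inhibition fitted to IC50.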

Test [1] has as its system IL-2 MALT1-dependent release in Jurkat cells. In words: cells. In kind it is cell-based. The note with it: Homo sapiens; Jurkat cells stimulated with antiCD3/antiCD28 for 24 h; IL-2 ELISA; read-out: EC50, IL-2 MALT1-dependent release inhibition. Here is the method:
Jurkat cells (ATCC, USA) (100,000 cells/well in a 96 well flat-bottom plate (Greiner, #655061) were cultured in RPMI 1640 supplemented with 10% FBS at 37° C., 5% CO2 in a humidified cell culture incubator for 0.5-1 h. Then 10 μl/well 15× compound (or DMSO) was added in duplicates. Cells were incubated with compound in a humidified cell culture incubator for 0.5-1 h. After the incubation, 10 μl/well of 15× human antiCD3 HIT3a antibody (BioLegend) together with 10 μl/well of 15× human antiCD28 antibody (Invitrogen) were added to stimulate Jurkat cells for 24 h. After 24 h of stimulation, supernatants were collected and IL-2 levels in supernatants were assessed using IL-2 ELISA kit (Vector-Best, Russia).

This is an account of results in patent US20250163066A1, “PROTACs of MALT1” (TEGID THERAPEUTICS, INC., priority 2022, published 2025).

MALT1, sequence (Q9UDY8 whole entry): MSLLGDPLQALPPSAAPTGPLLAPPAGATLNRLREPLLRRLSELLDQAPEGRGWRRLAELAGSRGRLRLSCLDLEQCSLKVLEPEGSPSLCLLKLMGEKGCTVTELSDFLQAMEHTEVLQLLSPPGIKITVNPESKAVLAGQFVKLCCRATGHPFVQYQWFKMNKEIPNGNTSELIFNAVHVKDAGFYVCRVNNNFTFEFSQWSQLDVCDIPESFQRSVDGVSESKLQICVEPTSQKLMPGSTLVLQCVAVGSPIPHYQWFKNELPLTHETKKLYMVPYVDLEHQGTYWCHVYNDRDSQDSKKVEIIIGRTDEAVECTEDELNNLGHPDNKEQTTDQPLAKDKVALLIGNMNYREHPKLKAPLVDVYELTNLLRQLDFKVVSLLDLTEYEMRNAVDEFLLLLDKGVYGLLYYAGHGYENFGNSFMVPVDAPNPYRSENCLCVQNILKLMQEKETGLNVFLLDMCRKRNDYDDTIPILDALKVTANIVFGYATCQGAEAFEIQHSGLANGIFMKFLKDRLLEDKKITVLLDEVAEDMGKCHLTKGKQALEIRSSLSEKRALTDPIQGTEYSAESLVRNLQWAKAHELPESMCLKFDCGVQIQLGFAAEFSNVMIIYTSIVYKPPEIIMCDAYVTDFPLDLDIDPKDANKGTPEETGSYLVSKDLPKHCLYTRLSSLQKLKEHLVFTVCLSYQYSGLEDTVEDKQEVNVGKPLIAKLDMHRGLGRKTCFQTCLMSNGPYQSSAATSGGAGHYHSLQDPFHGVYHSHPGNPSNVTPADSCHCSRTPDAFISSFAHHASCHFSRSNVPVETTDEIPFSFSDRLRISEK

What is called EC50 is the midpoint of the concentration-response curve. Consider `Cc1cc(NC(=O)Nc2cnc3ccnn3c2C2CCCC2)cnc1-c1noc(CCCN2CCN(c3cc4c(cc3F)C(=O)N(C3CCC(=O)NC3=O)C4=O)CC2)n1` (stereo not shown) [Compound 23, 1-(7-cyclopentylpyrazolo[1,5-a]pyrimidin-6-yl)-3-[6-[5-[3-[4-[2-(2,6-dioxo-3-piperidyl)-6-fluoro-1,3-dioxo-isoindolin-5-yl]piperazin-1-yl]propyl]-1,2,4-oxadiazol-3-yl]-5-methyl-3-pyridyl]urea], for which the EC50 is 0.2 to 0.5 µM at MALT1 and under 500 nM in test [1].

As for `O=C(CCOCCN1CCN(c2ccc3c(c2)CN(C2CCC(=O)NC2=O)C3=O)CC1)NCCOc1ncc(Cl)cc1NC(=O)Nc1cnc2ccnn2c1C1CCCC1` (stereo not shown) [Compound 37, N-[2-[[5-chloro-3-[(7-cyclopentylpyrazolo[1,5-a]pyrimidin-6-yl)carbamoylamino]-2-pyridyl]oxy]ethyl]-3-[2-[4-[2-(2,6-dioxo-3-piperidyl)-1-oxo-isoindolin-5-yl]piperazin-1-yl]ethoxy]propanamide], the EC50 at MALT1 was in the range of 0.5 to 1 µM; in test [1], 1000 to 5000 nM.

For `O=C(CCOCCOCCN1CCN(c2ccc3c(c2)CN(C2CCC(=O)NC2=O)C3=O)CC1)NCCOc1ncc(Cl)cc1NC(=O)Nc1cnc2ccnn2c1C1CCCC1` (stereo not shown) [Compound 38, N-[2-[[5-chloro-3-[(7-cyclopentylpyrazolo[1,5-a]pyrimidin-6-yl)carbamoylamino]-2-pyridyl]oxy]ethyl]-3-[2-[2-[4-[2-(2,6-dioxo-3-piperidyl)-1-oxo-isoindolin-5-yl]piperazin-1-yl]ethoxy]ethoxy]propanamide], the values for the EC50 (on MALT1; in test [1]) were 0.2 to 0.5 µM and 1000 to 5000 nM, respectively.

Regarding `Cc1cc(NC(=O)Nc2cnc3ccnn3c2C2CCCC2)cnc1N1CCN(c2ccc3c(c2)CN(C2CCC(=O)NC2=O)C3=O)CC1` (stereo not shown) [Compound 54, 1-(7-cyclopentylpyrazolo[1,5-a]pyrimidin-6-yl)-3-[6-[4-[2-(2,6-dioxo-3-piperidyl)-1-oxo-isoindolin-5-yl]piperazin-1-yl]-5-methyl-3-pyridyl]urea], the 50% effective concentration (EC50) at MALT1 was 1 to 5 µM; in test [1] it was over 5000 nM.

As for `Cc1cc(NC(=O)Nc2cnc3ccnn3c2C2CCCC2)cnc1-c1noc(CCCCCN2CCN(c3cc4c(cc3F)C(=O)N(C3CCC(=O)NC3=O)C4=O)CC2)n1` (stereo not shown) [Compound 55, 1-(7-cyclopentylpyrazolo[1,5-a]pyrimidin-6-yl)-3-[6-[5-[5-[4-[2-(2,6-dioxo-3-piperidyl)-6-fluoro-1,3-dioxo-isoindolin-5-yl]piperazin-1-yl]pentyl]-1,2,4-oxadiazol-3-yl]-5-methyl-3-pyridyl]urea], the EC50 is at most 0.2 µM at MALT1 and 500 to 1000 nM in test [1].

Take `O=C1CCC(N2Cc3cc(N4CCN(Cc5nc(-c6ncc(NC(=O)Nc7cnc8ccnn8c7C7CCCC7)cc6Cl)no5)CC4)ccc3C2=O)C(=O)N1` (stereo not shown) [Compound 56, 1-[5-chloro-6-[5-[[4-[2-(2,6-dioxo-3-piperidyl)-1-oxo-isoindolin-5-yl]piperazin-1-yl]methyl]-1,2,4-oxadiazol-3-yl]-3-pyridyl]-3-(7-cyclopentylpyrazolo[1,5-a]pyrimidin-6-yl)urea]: the values for the EC50 (at MALT1; in test [1]) were at most 0.2 µM and under 500 nM, respectively.

`Cc1cc(NC(=O)Nc2cnc3ccnn3c2C2CCCC2)cnc1-c1noc(CCCCN2CCN(c3cc4c(cc3F)C(=O)N(C3CCC(=O)NC3=O)C4=O)CC2)n1` (stereo not shown) [Compound 57, 1-(7-cyclopentylpyrazolo[1,5-a]pyrimidin-6-yl)-3-[6-[5-[4-[4-[2-(2,6-dioxo-3-piperidyl)-6-fluoro-1,3-dioxo-isoindolin-5-yl]piperazin-1-yl]butyl]-1,2,4-oxadiazol-3-yl]-5-methyl-3-pyridyl]urea]: the concentration for a half-maximal effect (EC50) at MALT1 was at most 0.2 µM; in test [1], 1000 to 5000 nM.

`O=C1CCC(N2Cc3cc(N4CCN(C(=O)CCCCc5nc(-c6ncc(NC(=O)Nc7cnc8ccnn8c7C7CCCC7)cc6Cl)no5)CC4)ccc3C2=O)C(=O)N1` (stereo not shown) [Compound 76, 1-[5-chloro-6-[5-[5-[4-[2-(2,6-dioxo-3-piperidyl)-1-oxo-isoindolin-5-yl]piperazin-1-yl]-5-oxo-pentyl]-1,2,4-oxadiazol-3-yl]-3-pyridyl]-3-(7-cyclopentylpyrazolo[1,5-a]pyrimidin-6-yl)urea]: the EC50 was at most 0.2 µM on MALT1 and 500 to 1000 nM in test [1].

Regarding `O=C1CCC(N2Cc3cc(N4CCN(CCCCCCc5nc(-c6ncc(NC(=O)Nc7cnc8ccnn8c7C7CCCC7)cc6Cl)no5)CC4)ccc3C2=O)C(=O)N1` (stereo not shown) [Compound 78, 1-[5-chloro-6-[5-[6-[4-[2-(2,6-dioxo-3-piperidyl)-1-oxo-isoindolin-5-yl]piperazin-1-yl]hexyl]-1,2,4-oxadiazol-3-yl]-3-pyridyl]-3-(7-cyclopentylpyrazolo[1,5-a]pyrimidin-6-yl)urea], the EC50 at MALT1 was at most 0.2 µM; in test [1] it was under 500 nM.

For `O=C1CCC(N2Cc3cc(N4CCN(CCCCCc5nc(-c6ncc(NC(=O)Nc7cnc8ccnn8c7C7CCCC7)cc6Cl)no5)CC4)ccc3C2=O)C(=O)N1` (stereo not shown) [Compound 79, 1-[5-chloro-6-[5-[5-[4-[2-(2,6-dioxo-3-piperidyl)-1-oxo-isoindolin-5-yl]piperazin-1-yl]pentyl]-1,2,4-oxadiazol-3-yl]-3-pyridyl]-3-(7-cyclopentylpyrazolo[1,5-a]pyrimidin-6-yl)urea], the 50% effective concentration (EC50) on MALT1 was at most 0.2 µM; in test [1] it was under 500 nM.

Turning to `Cc1cc2ncc(NC(=O)Nc3cnc(-c4noc(CCCCCC(=O)N5CCN(c6ccc7c(c6)CN(C6CCC(=O)NC6=O)C7=O)CC5)n4)c(C)c3)c(C3CCCC3)n2n1` (stereo not shown) [Compound 82, 1-(7-cyclopentyl-2-methyl-pyrazolo[1,5-a]pyrimidin-6-yl)-3-[6-[5-[6-[4-[2-(2,6-dioxo-3-piperidyl)-1-oxo-isoindolin-5-yl]piperazin-1-yl]-6-oxo-hexyl]-1,2,4-oxadiazol-3-yl]-5-methyl-3-pyridyl]urea], the EC50 at MALT1 is at most 0.2 µM; in test [1] it was 1000 to 5000 nM.

For `Cc1cc2ncc(NC(=O)Nc3cnc(-c4noc(CCCCC(=O)N5CCN(c6ccc7c(c6)CN(C6CCC(=O)NC6=O)C7=O)CC5)n4)c(C)c3)c(C3CCCO3)n2n1` (stereo not shown) [Compound 84, 1-[6-[5-[5-[4-[2-(2,6-dioxo-3-piperidyl)-1-oxo-isoindolin-5-yl]piperazin-1-yl]-5-oxo-pentyl]-1,2,4-oxadiazol-3-yl]-5-methyl-3-pyridyl]-3-(2-methyl-7-tetrahydrofuran-2-yl-pyrazolo[1,5-a]pyrimidin-6-yl)urea], the 50% effective concentration (EC50) on MALT1 was at most 0.2 µM; in test [1], 1000 to 5000 nM.

With `Cc1cc(NC(=O)Nc2cnc3ccnn3c2C(C)C)cnc1-c1noc(CCCCC(=O)N2CCN(c3ccc4c(c3)CN(C3CCC(=O)NC3=O)C4=O)CC2)n1` (stereo not shown) [Compound 86, 1-[6-[5-[5-[4-[2-(2,6-dioxo-3-piperidyl)-1-oxo-isoindolin-5-yl]piperazin-1-yl]-5-oxo-pentyl]-1,2,4-oxadiazol-3-yl]-5-methyl-3-pyridyl]-3-(7-isopropylpyrazolo[1,5-a]pyrimidin-6-yl)urea], the EC50 on MALT1 is at most 0.2 µM; in test [1], 1000 to 5000 nM.

On to `Cc1cc(NC(=O)Nc2cnc3ccnn3c2C(C)C)cnc1-c1noc(CCCCCN2CCN(c3ccc4c(c3)CN(C3CCC(=O)NC3=O)C4=O)CC2)n1` (stereo not shown) [Compound 87, 1-[6-[5-[5-[4-[2-(2,6-dioxo-3-piperidyl)-1-oxo-isoindolin-5-yl]piperazin-1-yl]pentyl]-1,2,4-oxadiazol-3-yl]-5-methyl-3-pyridyl]-3-(7-isopropylpyrazolo[1,5-a]pyrimidin-6-yl)urea], for which the EC50 was at most 0.2 µM on MALT1 and under 500 nM in test [1].

Regarding `Cc1cc(NC(=O)Nc2cnc3ccnn3c2C2CCCC2)cnc1-c1noc(CCCCCN2CCN(c3ccc4c(c3)CN(C3CCC(=O)N(COC(=O)C(C)(C)C)C3=O)C4=O)CC2)n1` (stereo not shown) [Compound 88, [3-[5-[4-[5-[3-[5-[(7-cyclopentylpyrazolo[1,5-a]pyrimidin-6-yl)carbamoylamino]-3-methyl-2-pyridyl]-1,2,4-oxadiazol-5-yl]pentyl]piperazin-1-yl]-1-oxo-isoindolin-2-yl]-2,6-dioxo-1-piperidyl]methyl 2,2-dimethylpropanoate], the concentration giving a half-maximal response (EC50) at MALT1 was at most 0.2 µM; in test [1], 1000 to 5000 nM.

As to `Cc1cc(NC(=O)Nc2cnc3ccnn3c2C(C)C)cnc1-c1noc(CCCC(=O)N2CCN(c3ccc4c(c3)CN(C3CCC(=O)NC3=O)C4=O)CC2)n1` (stereo not shown) [Compound 89, 1-[6-[5-[4-[4-[2-(2,6-dioxo-3-piperidyl)-1-oxo-isoindolin-5-yl]piperazin-1-yl]-4-oxo-butyl]-1,2,4-oxadiazol-3-yl]-5-methyl-3-pyridyl]-3-(7-isopropylpyrazolo[1,5-a]pyrimidin-6-yl)urea], the results for the concentration giving a half-maximal response (EC50) (at MALT1; in test [1]) were at most 0.2 µM and under 500 nM, respectively.

In the case of `Cc1cc(NC(=O)Nc2cnc3ccnn3c2C(C)C)cnc1-c1noc(CCCCCC(=O)N2CCN(c3ccc4c(c3)CN(C3CCC(=O)NC3=O)C4=O)CC2)n1` (stereo not shown) [Compound 91, 1-[6-[5-[6-[4-[2-(2,6-dioxo-3-piperidyl)-1-oxo-isoindolin-5-yl]piperazin-1-yl]-6-oxo-hexyl]-1,2,4-oxadiazol-3-yl]-5-methyl-3-pyridyl]-3-(7-isopropylpyrazolo[1,5-a]pyrimidin-6-yl)urea], the EC50 at MALT1 was at most 0.2 µM; in test [1], 500 to 1000 nM.
